According to patent publication US10428082B2, “Triazole derivatives of melampomagnolide B and methods of use thereof” (BioVentures, LLC, priority 2016, dated 2019):
Where two headings read alike, the source gives them in different places.

What was measured:
[1] = tested on: M9 ENL1 cell line; test: Anti-leukemic activity, Annexin V/7-AAD flow cytometry; type: cell-based
Method: (§1) The newly synthesized triazole derivatives of melampomagnolide B were screened for anti-leukemic activity against M9 ENL1 and primary AML cell lines; the latter were obtained with informed consent from human patients. Evaluations were performed after 24 h of drug exposure using flow cytometric analysis by labeling with Annexin V and 7-aminoactinomycin D (7-AAD) to delineate apoptotic cell populations. In all experiments PTL was included as a reference control.

[2] = tested on: primary AML cell line AML1; test: as above; type: cell-based, human; details: 24 h of drug exposure, read-out: AML#1 (EC50)
Method: as §1

[3] = tested on: primary AML cell line AML2; test: as above; type: cell-based, human; details: 24 h of drug exposure, read-out: AML#2 (EC50)
Method: as §1

[4] = Water solubility; type: physicochemical; details: fumarate salt vs free base
[5] = M9-ENL1, 24 h, 24 h of drug exposure, read-out: M9ENL1 (EC50)
[6] = 24 h of drug exposure, read-out: M9ENL1 (EC50)

Structure (SMILES) | EC50 [1, 5] [nM] | EC50 ([2]; Homo sapiens, AML1, 24 h) [nM] | EC50 [1, 6] [nM] | also measured
CN(C)CC1C(=O)O[C@H]2[C@H]1CC/C(Cn1cc(-c3cc(C(F)(F)F)cc(C(F)(F)F)c3)nn1)=C\CC[C@@]1(C)O[C@@H]21 (stereo partly drawn) [JVM 4-29B] | 1900 | 1100 |  | EC50 ([3]; Homo sapiens, 24 h): 2300 nM
CN(C)CC1C(=O)O[C@H]2[C@H]1CC/C(Cn1cc(-c3cc(C(F)(F)F)cc(C(F)(F)F)c3)nn1)=C\CC[C@@]1(C)O[C@@H]21 (stereo partly drawn) [JVM 4-29C] |  |  | 1700 | EC50 [2]: 1000 nM; EC50 [3]: 2900 nM; water solubility compared with free base form [4]: more water soluble than the free base form
C=C1C(=O)O[C@H]2[C@H]1CC/C(Cn1cc(-c3ccccn3)nn1)=C\CC[C@@]1(C)O[C@@H]21 [JVM 4-47, (1aR,7aS,10aS,10bS,E)-1a-Methyl-8-methylene-5-((4-(pyridin-2-yl)-1H-1,2,3-triazol-1-yl)methyl)-2,3,6,7,7a,8,10a,10b-octahydrooxireno[2′,3′:9,10]cyclodeca[1,2-b]furan-9(1aH)-one] | 3200 | 7900 |  | 
C=C1C(=O)O[C@H]2[C@H]1CC/C(Cn1cc(COC(=O)c3ccccc3)nn1)=C\CC[C@@]1(C)O[C@@H]21 [JVM 3-76] |  |  | 11000 | 
C=C1C(=O)O[C@H]2[C@H]1CC/C(Cn1cc(CCCCl)nn1)=C\CC[C@@]1(C)O[C@@H]21 [JVM 4-31] |  |  | 3800 | 
C=C1C(=O)O[C@H]2[C@H]1CC/C(Cn1cc(-c3ccc(F)c(C)c3)nn1)=C\CC[C@@]1(C)O[C@@H]21 [JVM 4-27, (1aR,7aS,10aS,10bS,E)-5-((4-(4-Fluoro-3-methylphenyl)-1H-1,2,3-triazol-1-yl)methyl)-1a-methyl-8-methylene-2,3,6,7,7a,8,10a,10b-octahydrooxireno[2′,3′:9,10]cyclodeca[1,2-b]furan-9(1aH)-one] | 1200 | 1300 |  | EC50 ([3]; Homo sapiens, 24 h): 1200 nM
C=C1C(=O)O[C@H]2[C@H]1CC/C(Cn1cc(CO)nn1)=C\CC[C@@]1(C)O[C@@H]21 [JVM 3-75] |  |  | 38000 | 
C=C1C(=O)O[C@H]2[C@H]1CC/C(Cn1cc(-c3cc(F)cc(F)c3)nn1)=C\CC[C@@]1(C)O[C@@H]21 [JVM 4-48, (1aR,7aS,10aS,10bS,E)-5-((4-(3,5-Difluorophenyl)-1H-1,2,3-triazol-1-yl)methyl)-1a-methyl-8-methylene-2,3,6,7,7a,8,10a,10b-oetahydrooxireno[2′,3′:9,10]cyclodeca[1,2-b]furan-9(1aH)-one] | 1500 | 2400 |  | 
C/C1=C\CC[C@@]2(C)O[C@@H]2[C@H]2OC(=O)[C@H](CN(C)C)[C@@H]2CC1 [DMAPT, reference compound] |  |  | 6000 | EC50 [2]: 14700 nM; EC50 [3]: 11300 nM
C#Cc1cccc(-c2cn(C/C3=C/CC[C@@]4(C)O[C@H]4[C@H]4OC(=O)C(=C)[C@@H]4CC3)nn2)c1 [JVM 4-41, (1aR,7aS,10aS,10bS,E)-5-((4-(3-Ethynylphenyl)-1H-1,2,3-triazol-1-yl)methyl)-1a-methyl-8-methylene-2,3,6,7,7a,8,10a,10b-octahydrooxireno[2′,3′:9,10]cyclodeca[1,2-b]furan-9(1aH)-one] | 200 |  |  | EC50 ([1]; M9-ENL1, text value in nM, read-out: EC50 against the M9 ENL cell line): 200 nM; fold more potent than parthenolide (PTL) ([1]; M9 ENL1 cells): 26 fold
C=C1C(=O)O[C@H]2[C@H]1CC/C(Cn1cc(CCCC)nn1)=C\CC[C@@]1(C)O[C@@H]21 [JVM 4-20] |  |  | 4300 | 
C=C1C(=O)O[C@@H]2[C@H]3O[C@]3(C)CC/C=C(\CO)CC[C@@H]12 [MMB, Melampomagnolide B] |  |  | 16000 | EC50 [2]: 20500 nM; EC50 [3]: 24300 nM
